Laboratory results from patent EP0456204A2, “Use of benzocycloheptathiophenecarboxylic acid derivatives in the treatment of eosinophile accumulation/activation and connected diseases” (SANDOZ LTD., priority 1990, dated 1991).

Tests used:
[1] = system: allergen induced eosinophilia; test: Influence on allergen induced eosinophilia following inhalation of test compound; bronchoalveolar lavage 24 hrs after challenge; type: in vivo, Male guinea-pigs (Dunkin-Hartley); settings: inhalation immediately before challenge, 10.0 to 100mg/kg; lavage 24 hrs following challenge
Procedure: EXAMPLE B: INFLUENCE ON ALLERGEN INDUCED EOSINOPHILIA IN THE GUINEA-PIG FOLLOWING INHALATION
Male guinea-pigs (Dunkin-Hartley) of ca. 300-400g are sensitized employing 10µg amounts of ovalbumin (3x) and applying the technique described in Sanjar et al., Br. J. Pharmacol., 99, 679-686 (1990).
Immediately before challenge COMPOUND OF THE INVENTION, for example COMPOUND D2 or COMPOUND K1 each in substantially pure form, is administered to sensitized animals by inhalation. Administration is effected via a nose-cone either in dry powder with delivery from a brush feed micronising jet mill powder aerosol generator, as described in Bernstein et al. "Aerosols: Science, Technology and Industrial Application of Airborne Particles", Extended Abstract, eds. B.Y.H. Liu. et. al., Elsevier Science, New York, 1984 or in solution from a nebulizer. Antigen challenge or exposure is then carried out, again in accordance with the methods described by Sanjar et. al. loc cit. at p. 680 column 1, employing 10µg ovalbumin in 0.01% solution. Broncheolar lavage is performed 24 hrs following challenge, as follows: • 1. Airway lavage Guinea-pigs are killed by an intraperitoneal injection of pentobarbitone 100mg/kg). The trachea is exposed and cannulated. 10ml of Hank's balanced solution is introduced into the lungs and immediately aspirated by gentle compression of the lung tissue. This procedure is repeated five times. Aspiration fluid is pooled at room temperature in Falcon plastic tubes (60ml). Fluid recovered from the six washes normally exceeds 50ml (85%). The cell suspension is centrifuged (200g for 10 minutes); the supernatant is discarded and the cell pellet resuspended in 1ml of Hank's balanced solution. • 2. Total cell counts 10µl of the 1ml cell suspension is added to 190µl or 90µl (when cell count is low) of Turk's stain (Merck, Darmstadt, Germany) and total cell numbers are determined in a Neubauer (brightline) hemocytometer. The incidence of cells in the 1ml suspension is calculated by multiplying the total cells enumerated in a square of 1mm² by the original dilution viz.: No. of cells counted x dilution x […] = no. of cells/ml. • 3. Differential cell counts The cell suspension is diluted in Hank's balanced solution to obtain a cell concentration of 10⁶ cells per ml. 50µl of this cell suspension is placed in the cytospin (Cytospin 2, Shandon Co.) tube and overlaid by 200µl of buffer. The cytospin is used at 600rpm for 8 minutes. Results for groups of animals receiving COMPOUNDS OF THE INVENTION at varying doses are compared with results for control challenged animals receiving no test substance.

[2] = system: allergic, atopic bronchoconstrictor response; test: Clinical trial 1.1: prophylactic efficacy before allergen challenge in obstructive inflammatory airways disease, e.g. asthma; type: in vivo, subjects (human); settings: oral ca. 10 to 800mg/day, 1 to 2 hours or 1 to 7 days prior to allergen challenge; compared with placebo
Procedure: (§1) Suitable individual oral dosages, e.g. for COMPOUNDS D2 and K1 in substantially pure form, in such clinical trials comprise, e.g. from ca. 10 to 800mg, e.g. from ca. 50 to 250mg/day, for example at dosages of ca. 25, 50, 200 or 400mg/day orally administered 1x or in divided doses 2 to 3x daily, for example in encapsulated form as hereinafter described in EXAMPLE F. Both acute (0 to 1 hour) and long-term (up to 12 hour) change in lung function is determined post-medication by measurement of lung function parameters, e.g. as follows: • a) FVC; FEV 0.5; FEV 1.0; FEV 3.0; • b) FEV 0.5/FVC; FEV 1/FVC; FEV 3/FVC; • c) PEF; FEF 25-75%; FEF 75-85%; FEF 25%; FEF 50%; FEF 75%; FEF 0.2-1.2 • d) Flow expiratory curve and flow inspiratory curve. Tolerance of medication and possible occurrence of side effects are also reported. In addition to monitoring of lung function, blood eosinophil levels are also monitored and the incidence of activated eosinophils and eosinophil secretory proteins determined. In individual studies, subjects are also subjected to lung lavage and the presence of eosinophils and platelets and their respective secretory products determined before and after exposure to allergen. […] Initial dosaging for e.g. COMPOUND D2 or COMPOUND K1 in substantially pure form is of the order of from 10 to 800mg, e.g. from ca. 50 to 250mg/day, for example at dosages of ca. 25, 50, 200 or 400mg/day administered, e.g. orally once or in divided dosages 2 to 3x daily with subsequent reduction in appropriate cases to a maintenance dosage of 10 to 400mg/day orally. (Suitable dosage forms are e.g. as hereinafter described in EXAMPLE F). During the course of the trial subjects are monitored continually and all relevant parameters recorded including lung function, alterations in the incidence of activated eosinophils or the release of eosinophil products into the blood or bronchial fluids and, in particular, frequency and severity of asthma exacerbation or attack. Additional bronchodilator therapy is provided on the occasion of any such attack. […] During the course of the trial, subjects are monitored continually and all relevant parameters are recorded, including basal lung function, frequency of attack with impairment of lung function, requirement for other medication and frequency of absenteeism attributable to disease status. […] In cases where frequent use of alternative medication is recorded at trial entry, reduced need for concomitant medication is also observed as the trial progresses. […] Recorded symptomatology attributable to condition is also found to undergo reversal during treatment. […]

[3] = system: eosinophil accumulation in the airway lumen; test: Suppression of eosinophil accumulation in allergen (ovalbumin) treated, sensitised animals; airway lavage cell counts; type: in vivo, Guinea-pigs (Dunkin-Hartley, male); settings: for airway eosinophil accumulation compared with untreated controls: 10.0 - 100mg/kg/day as a solution orally for 6 consecutive days prior to challenge, 1 hour prior and seven hours after challenge, lavage 24 hours after challenge
[4] = system: pneumoconiosis or severe bronchitis; test: Clinical trial 2: utility in pneumoconiosis/bronchitis; type: in vivo, subjects (human); settings: daily oral dosage as under 1.2, in excess of 2 months; for need for concomitant medication: frequent alternative medication at trial entry
Procedure: (§2) Suitable individual oral dosages, e.g. for COMPOUNDS D2 and K1 in substantially pure form, in such clinical trials comprise, e.g. from ca. 10 to 800mg, e.g. from ca. 50 to 250mg/day, for example at dosages of ca. 25, 50, 200 or 400mg/day orally administered 1x or in divided doses 2 to 3x daily, for example in encapsulated form as hereinafter described in EXAMPLE F. Both acute (0 to 1 hour) and long-term (up to 12 hour) change in lung function is determined post-medication by measurement of lung function parameters, e.g. as follows: • a) FVC; FEV 0.5; FEV 1.0; FEV 3.0; • b) FEV 0.5/FVC; FEV 1/FVC; FEV 3/FVC; • c) PEF; FEF 25-75%; FEF 75-85%; FEF 25%; FEF 50%; FEF 75%; FEF 0.2-1.2 • d) Flow expiratory curve and flow inspiratory curve. Tolerance of medication and possible occurrence of side effects are also reported. In addition to monitoring of lung function, blood eosinophil levels are also monitored and the incidence of activated eosinophils and eosinophil secretory proteins determined. In individual studies, subjects are also subjected to lung lavage and the presence of eosinophils and platelets and their respective secretory products determined before and after exposure to allergen. […] Initial dosaging for e.g. COMPOUND D2 or COMPOUND K1 in substantially pure form is of the order of from 10 to 800mg, e.g. from ca. 50 to 250mg/day, for example at dosages of ca. 25, 50, 200 or 400mg/day administered, e.g. orally once or in divided dosages 2 to 3x daily with subsequent reduction in appropriate cases to a maintenance dosage of 10 to 400mg/day orally. (Suitable dosage forms are e.g. as hereinafter described in EXAMPLE F). During the course of the trial subjects are monitored continually and all relevant parameters recorded including lung function, alterations in the incidence of activated eosinophils or the release of eosinophil products into the blood or bronchial fluids and, in particular, frequency and severity of asthma exacerbation or attack. Additional bronchodilator therapy is provided on the occasion of any such attack. […] UTILITY IN PNEUMOCONIOSIS/BRONCHITIS The trial is performed analogously to 1.2 above but with groups of subjects having a history of pneumoconiosis or severe bronchitis, e.g. characterised by events of restricted lung function, for example including difficulty in breathing, wheezing, dyspnea or occasional bronchoconstrictor attack and a record of pneumoconiosis- or bronchitis-related work absenteeism. […] COMPOUND D2 or COMPOUND K1 each in substantially pure form is administered daily at oral dosage rates as set forth under 1.2 above, over periods in excess of 2, preferably in excess of 3, months. During the course of the trial, subjects are monitored continually and all relevant parameters are recorded, including basal lung function, frequency of attack with impairment of lung function, requirement for other medication and frequency of absenteeism attributable to disease status. […] In cases where frequent use of alternative medication is recorded at trial entry, reduced need for concomitant medication is also observed as the trial progresses. Similar results are obtainable employing other COMPOUNDS OF THE INVENTION at the same or equivalent dosage rates. • 3. […] COMPOUND D2 or COMPOUND K1 in substantially pure form is administered orally at a daily dosage rate of from 10 to 400mg, e.g. from cam. 50 to 250mg/day, for example at dosages of ca. 25, 50 or 200mg, e.g. in dosage form as hereinafter described in EXAMPLE F. The trial is continued for a period of up to 2 to 3 months. Blood samples are collected regularly during the course of the trial and assayed for blood-eosinophil count, incidence of activated eosinophils and levels of eosinophil secretory proteins. […] Recorded symptomatology attributable to condition is also found to undergo reversal during treatment. Similar results are obtainable employing other COMPOUNDS OF THE INVENTION at the same or equivalent dosage rates.

[5] = Acute toxicity (LD50) in mice; settings: mouse, in vivo, read-out: LD₅₀
Procedure: (§3) Thus established LD₅₀ values for the COMPOUND D2 in substantially pure form in mice and rats after 14 days p.o. and 7 days i.v. are: in mice, p.o […], i.v. 163 mg/kg; in rats, p.o. 1721 mg/kg, i.v. 50 mg/kg.

[6] = system: beagle dogs; test: 26-week oral tolerability in beagle dogs; type: in vivo; settings: up to 200 mg/kg/day P.O for 26 weeks
[7] = system: asthma exacerbation or attack; test: Clinical trial 1.2: long-term prophylactic efficacy in asthmatic subjects; type: in vivo, asthmatic subjects (human); settings: 10 to 800mg/day orally; for frequency of asthma exacerbation or attack: at least 2 up to 6 months and more, compared with alternative, non-prophylactic therapy; for need for concomitant (bronchodilator) therapy: at least 2 up to 6 months, subjects initially dependent on methyl-xanthine or β₂-agonist therapy
Procedure: as §1

[8] = system: elevated eosinophil presence in the blood; test: Clinical trial 3: utility in hypereosinophilia and eosinophil-related disorders; type: in vivo, subjects (human); settings: orally 10 to 400mg daily, up to 2 to 3 months
Procedure: as §2

[9] = Acute toxicity (LD50) in rats; settings: rat, in vivo, read-out: LD₅₀
Procedure: as §3

[10] = Tolerability in clinical trials; type: in vivo, human; settings: oral dosage rates of 50, 200 and 400mg/day
[11] = system: beagle dog; test: Pilot toxicological studies in the beagle dog; type: in vivo; settings: 150 and 200 mg/kg p.o. in gelatin capsules over 5 weeks and in olive oil from week 6 to week 8 on

SMILES	eosinophil counts as compared with control groups [1]	neutrophil counts as compared with control groups [1]	total cell counts as compared with control groups [1]	eosinophilic response [2]	lung function parameters [2]	airway eosinophil accumulation compared with untreated controls [3]	basal lung function [4]	frequency of attack and absenteeism [4]	need for concomitant medication [4]	frequency of asthma exacerbation or attack [7]	need for concomitant (bronchodilator) therapy [7]	blood-eosinophil count [8]	incidence of activated eosinophils and eosinophil secretory protein levels [8]	recorded symptomatology attributable to condition [8]	other results
COC1=Cc2ccccc2C(=CC(=O)O)c2ccsc21 [COMPOUND D2, [10-Methoxy-4H-benzo[4,5]cyclohepta[1,2-b]thiophen-4-ylidene]-acetic acid]	clear reduction	clear reduction	clear reduction	reduction of eosinophilic response	marked improvement	significant reduction	overall improvement	reduced frequency	reduced need	marked reduction	increasingly reduced need	decreased blood-eosinophil count	decreased incidence	reversal	activity in the subject test model (airway eosinophil accumulation) ([3]; dosages of 10 and 50mg/kg/day s.c.): significant activity; LD50 at 168 h ([5]; iv, after 7 days): 163 mg/kg; LD50 at 336 h ([5]; po, after 14 days): 1620 mg/kg; tolerability [6]: generally well tolerated; LD50 at 168 h ([9]; iv, after 7 days): 50 mg/kg; LD50 at 336 h ([9]; po, after 14 days): 1720 mg/kg; tolerability / side effects [10]: well tolerated with no significant side effect occurrance
COC1=Cc2ccccc2C(=CC(=O)O)c2cc(Cl)sc21 [COMPOUND K1, [2-Chloro-10-methoxy-4H-benzo[4,5]cyclohepta[1,2-b]thiophen-4-ylidene]-acetic acid]	clear reduction	clear reduction	clear reduction			significant reduction	overall improvement	reduced frequency	reduced need			decreased blood-eosinophil count	decreased incidence	reversal	pathological effects [11]: no pathological effects
COC1=Cc2ccccc2C(=CC(=O)O)c2cc(Cl)sc21 [COMPOUND K2, [2-Chloro-10-methoxy-4H-benzo[4,5]cyclohepta[1,2-b]thiophen-4-ylidene]-acetic acid]				reduction of eosinophilic response	marked improvement					marked reduction	increasingly reduced need				
